According to ChEMBL document CHEMBL3813604, “Two pairs of farnesyl phenolic enantiomers as natural nitric oxide inhibitors from Ganoderma sinense” (Bioorg Med Chem Lett, 2016):

What follows are compounds tested on RAW264.7 (assay: Antiinflammatory activity in mouse RAW264.7 cells assessed as inhibition of LPS-induced nitric oxide production after 24 hrs by Griess assay). Settings: RAW264.7, 24 h.
Format: functional, cell-based

`CO[C@]1(c2cc(O)cc(O)c2)C=C(CC/C=C(\CO)CC/C=C(\C)COC(=O)/C=C/c2ccc(O)cc2)C(=O)O1` and `CO[C@@]1(c2cc(O)cc(O)c2)C=C(CC/C=C(\CO)CC/C=C(\C)COC(=O)/C=C/c2ccc(O)cc2)C(=O)O1` are within 1.5-fold of each other in IC50: 2260 nM for the first, 1510 nM for the second.

`C/C(=C\CC/C(=C/CCC1=C[C@H](c2cc(O)ccc2O)OC1=O)CO)COC(=O)/C=C/c1ccc(O)cc1` and `C/C(=C\CC/C(=C/CCC1=C[C@@H](c2cc(O)ccc2O)OC1=O)CO)COC(=O)/C=C/c1ccc(O)cc1` are within 1.5-fold of each other in IC50: 1420 nM for the first, 1150 nM for the second.

`C[C@]12CCC(=O)C=C1CC[C@@H]1[C@@H]2[C@@H](O)C[C@@]2(C)[C@H]1CC[C@]2(O)C(=O)CO` [HYDROCORTISONE] was tested, and the IC50 was 58800 nM.
